Data on 1 sequence can be found in patent publication US20120122896A1, “2,1,3-BENZOXADIAZOL DERIVATIVES FOR THE INHIBITION OF INFLUENZA A AND B VIRUS AND RESPIRATORY SYNCYTIAL VIRUS REPLICATION” (PIKE PHARMA GMBH, priority 2009, published 2012).

One assay deals with HA-tagged PA of FluA. The note with it: read-out: IC50 (nM) PA (FluA).
Another assay has as its system HA-tagged PA from FluB. Put plainly: competitive ELISA, PB1 peptide / PA of FluB. The class given is binding, influenza B virus. (An ELISA detects its analyte on a solid surface through an enzyme-linked reagent.)

The IC50 is the concentration at which inhibition is half-maximal. As to MDVNPYFLFLKVPAQ [PB11-15 AT6Y, L7F], the IC50 in the assay with HA-tagged PA of FluA turned out to be 7.51 nM; in the assay with HA-tagged PA from FluB it was 345 nM.
